# US20030207014A1, “Animal feed and additive for animal feed to control feed borne pathogens” (priority 2002, published 2003)
# Assays:
# [1] = stability under pressure steam sterilization; format: physicochemical
# [2] = system: microbes present in animal feeds; assay: laboratory tests of anti-microbial action in animal feed
# Text: These properties make sodium percarbonate an ideal feed additive for animal feeds. In the preferred embodiments of the present invention sodium percarbonate is included in the feed formulations prior to the pellet forming process common to most animal feed processing procedures. […] This is due to the broad disinfection action of the sodium percarbonate upon all bacteria and the spores of bacteria, fungi, and algae.
# Such mammalian animal proteins have been banned throughout Europe although they continue to be used in other parts of the world. Otherwise the animal feeds in accordance with present invention are substantially the same as conventional animal feeds with the addition of sodium percarbonate.
# [3] = feeding of treated feed to livestock / poultry; format: in vivo
# Text: The preferred proportion of sodium percarbonate will vary for the specific animal feed composition and the specific animal consuming the feed as well as various environmental factors.
compound,measurement,setting,value
O=C([O-])[O-].O=C([O-])[O-].OO.OO.OO.[Na+].[Na+].[Na+].[Na+] [sodium percarbonate],stability,[1],very stable
same,effectiveness depending on feed composition,[2]; animal feeds that do not include mammalian animal proteins,greatest
same,anti-microbial effectiveness,"[2]; laboratory tests, all bacteria and spores of bacteria, fungi, algae",effective against all microbes present in animal feeds
same,acceptance of treated feed,[3]; livestock,readily accepted
same,digestive reactions,"[3]; poultry, rates of 2-8% by weight in feed",no untold digestive reactions
